Laboratory results taken from PubChem BioAssay AID248 (DTP/NCI, 2004).
“And” between values parts separate entries of the source, which are not always exact repeats. Equal values may be shown once. Inconclusive results and toxic doses are left out. Rule as the data show it: active = T/C of 150% or more; inactive = T/C below 125%.

Tested on: L1210 leukemia ip in BDF1 mice, survival T/C
Test: NCI In Vivo Anticancer Drug Screen. Data for tumor model L1210 Leukemia (intraperitoneal) in B6D2F1 (BDF1) mice
Conditions: higher = longer survival
Outline: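 Value reflects the ratio of survival in compound-treated mice to survival in vehicle-treated controls, with both groups carrying the same transplanted tumor.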

Measured: T/C

Cc1c2ccncc2c(C)c2c1[nH]c1ccccc12
inactive: endpoint: mean survival time, dose: 0.31 mg/kg/injection, schedule: Q#A X018 (ip), vehicle: other 102 % of control | endpoint: mean survival time, dose: 0.5 mg/kg/injection, schedule: Q01DX005 (ip), vehicle: other 105 % of control | endpoint: mean survival time, dose: 0.59 mg/kg/injection, schedule: Q03HX008 (ip), vehicle: other 94 % of control | endpoint: mean survival time, dose: 1.0 mg/kg/injection, schedule: Q01DX009 (ip), vehicle: other 111 % of control | endpoint: mean survival time, dose: 1.0 mg/kg/injection, schedule: Q01DX009 (ip), vehicle: water 107 % of control and 110 % of control | endpoint: mean survival time, dose: 1.0 mg/kg/injection, schedule: Q03HX024 (ip), vehicle: acid diluted with saline 110 % of control | endpoint: mean survival time, dose: 1.18 mg/kg/injection, schedule: Q03HX008 (ip), vehicle: other 98 % of control | endpoint: mean survival time, dose: 1.25 mg/kg/injection, schedule: Q#A X018 (ip), vehicle: other 110 % of control | endpoint: mean survival time, dose: 2.0 mg/kg/injection, schedule: Q01DX009 (ip), vehicle: other 111 % of control | endpoint: mean survival time, dose: 2.0 mg/kg/injection, schedule: Q03HX016 (ip), vehicle: clinical formulation 105 % of control | endpoint: mean survival time, dose: 2.0 mg/kg/injection, schedule: Q03HX016 (oral), vehicle: clinical formulation 95 % of control | endpoint: mean survival time, dose: 3.12 mg/kg/injection, schedule: Q01DX005 (oral), vehicle: saline 95 % of control | endpoint: mean survival time, dose: 3.12 mg/kg/injection, schedule: Q01DX009 (ip), vehicle: clinical formulation 102 % of control | endpoint: mean survival time, dose: 3.12 mg/kg/injection, schedule: Q04DX003 (ip), vehicle: clinical formulation 108 % of control | endpoint: mean survival time, dose: 3.12 mg/kg/injection, schedule: Q04DX009 (ip), vehicle: citric acid 101 % of control | endpoint: mean survival time, dose: 4.0 mg/kg/injection, schedule: Q01DX009 (oral), vehicle: clinical formulation 102 % of control | endpoint: mean survival time, dose: 4.0 mg/kg/injection, schedule: Q03HX008 (oral), vehicle: clinical formulation 109 % of control | endpoint: mean survival time, dose: 4.0 mg/kg/injection, schedule: Q03HX016 (oral), vehicle: clinical formulation 105 % of control | endpoint: mean survival time, dose: 4.0 mg/kg/injection, schedule: Q03HX024 (oral), vehicle: clinical formulation 110 % of control | endpoint: mean survival time, dose: 5.0 mg/kg/injection, schedule: Q01DX015 (oral), vehicle: carboxymethylcellulose (CMC) 105 % of control | endpoint: mean survival time, dose: 6.2 mg/kg/injection, schedule: Q01DX001 (ip), vehicle: saline 108 % of control | endpoint: mean survival time, dose: 6.2 mg/kg/injection, schedule: Q01DX Z (oral), vehicle: saline 110 % of control | endpoint: mean survival time, dose: 6.25 mg/kg/injection, schedule: Q01DX005 (oral), vehicle: saline 104 % of control | endpoint: mean survival time, dose: 6.25 mg/kg/injection, schedule: Q01DX005 (oral), vehicle: water 106 % of control | endpoint: mean survival time, dose: 6.25 mg/kg/injection, schedule: Q04DX003 (ip), vehicle: citric acid 107 % of control | endpoint: mean survival time, dose: 6.25 mg/kg/injection, schedule: Q04DX003 (ip), vehicle: clinical formulation 109 % of control and 110 % of control | endpoint: mean survival time, dose: 6.25 mg/kg/injection, schedule: Q04DX009 (ip), vehicle: citric acid 110 % of control | endpoint: mean survival time, dose: 8.0 mg/kg/injection, schedule: Q04DX003 (ip), vehicle: Klucel (hydroxypropylcellulose) (HPC) 110 % of control | endpoint: mean survival time, dose: 8.0 mg/kg/injection, schedule: Q04DX003 (ip), vehicle: acid diluted with saline 109 % of control | endpoint: mean survival time, dose: 9.37 mg/kg/injection, schedule: Q01DX001 (ip), vehicle: other 103 % of control | endpoint: mean survival time, dose: 9.37 mg/kg/injection, schedule: Q01DX001 (sc), vehicle: other 103 % of control and 104 % of control | endpoint: mean survival time, dose: 9.38 mg/kg/injection, schedule: Q01DX001 (ip), vehicle: other 100 % of control | endpoint: mean survival time, dose: 9.38 mg/kg/injection, schedule: Q04DX003 (ip), vehicle: clinical formulation 110 % of control | endpoint: mean survival time, dose: 10.0 mg/kg/injection, schedule: Q01DX015 (oral), vehicle: carboxymethylcellulose (CMC) 110 % of control | endpoint: mean survival time, dose: 12.5 mg/kg/injection, schedule: Q01DX005 (oral), vehicle: water 109 % of control | endpoint: mean survival time, dose: 12.5 mg/kg/injection, schedule: Q04DX003 (oral), vehicle: saline 106 % of control | endpoint: mean survival time, dose: 12.5 mg/kg/injection, schedule: Q04DX003 (oral), vehicle: water 104 % of control | endpoint: mean survival time, dose: 16.0 mg/kg/injection, schedule: Q03HX008 (ip), vehicle: clinical formulation 94 % of control | endpoint: mean survival time, dose: 16.0 mg/kg/injection, schedule: Q08DX002 (oral), vehicle: clinical formulation 100 % of control | endpoint: mean survival time, dose: 18.75 mg/kg/injection, schedule: Q01DX001 (sc), vehicle: other 107 % of control | endpoint: mean survival time, dose: 25.0 mg/kg/injection, schedule: Q01DX001 (oral), vehicle: saline with Tween-80 103 % of control | endpoint: mean survival time, dose: 25.0 mg/kg/injection, schedule: Q01DX001 (oral), vehicle: water 104 % of control | endpoint: mean survival time, dose: 25.0 mg/kg/injection, schedule: Q01DX009 (ip), vehicle: citric acid 108 % of control | endpoint: mean survival time, dose: 25.0 mg/kg/injection, schedule: Q01DX009 (ip), vehicle: clinical formulation 101 % of control | endpoint: mean survival time, dose: 25.0 mg/kg/injection, schedule: Q04DX003 (oral), vehicle: saline 104 % of control | endpoint: mean survival time, dose: 32.0 mg/kg/injection, schedule: Q01DX001 (oral), vehicle: clinical formulation 106 % of control | endpoint: mean survival time, dose: 32.0 mg/kg/injection, schedule: Q03HX008 (oral), vehicle: clinical formulation 110 % of control | endpoint: mean survival time, dose: 37.5 mg/kg/injection, schedule: Q01DX001 (oral), vehicle: other 110 % of control | endpoint: mean survival time, dose: 37.5 mg/kg/injection, schedule: Q01DX001 (sc), vehicle: saline 101 % of control and 109 % of control | endpoint: mean survival time, dose: 40.0 mg/kg/injection, schedule: Q#A X018 (ip), vehicle: other 105 % of control | endpoint: mean survival time, dose: 50.0 mg/kg/injection, schedule: Q01DX001 (oral), vehicle: water 104 % of control | endpoint: mean survival time, dose: 50.0 mg/kg/injection, schedule: Q01DX009 (ip), vehicle: saline with Tween-80 95 % of control | endpoint: mean survival time, dose: 50.0 mg/kg/injection, schedule: Q01DX009 (oral), vehicle: saline 110 % of control | endpoint: mean survival time, dose: 64.0 mg/kg/injection, schedule: Q04DX003 (ip), vehicle: Klucel (hydroxypropylcellulose) (HPC) 94 % of control and 95 % of control | endpoint: mean survival time, dose: 75.0 mg/kg/injection, schedule: Q01DX001 (oral), vehicle: saline 108 % of control | endpoint: mean survival time, dose: 75.0 mg/kg/injection, schedule: Q01DX001 (sc), vehicle: saline 103 % of control and 105 % of control | endpoint: mean survival time, dose: 75.0 mg/kg/injection, schedule: Q01DX009 (ip), vehicle: saline with Tween-80 98 % of control | endpoint: mean survival time, dose: 75.0 mg/kg/injection, schedule: Q04DX003 (ip), vehicle: clinical formulation 94 % of control | endpoint: mean survival time, dose: 75.0 mg/kg/injection, schedule: Q04DX003 (ip), vehicle: lactic acid 92 % of control | endpoint: mean survival time, dose: 80.0 mg/kg/injection, schedule: Q01DX009 (ip), vehicle: other 104 % of control | endpoint: mean survival time, dose: 80.0 mg/kg/injection, schedule: Q#A X018 (ip), vehicle: other 104 % of control | endpoint: mean survival time, dose: 80.0 mg/kg/injection, schedule: Q#A X018 (oral), vehicle: other 96 % of control | endpoint: mean survival time, dose: 100.0 mg/kg/injection, schedule: Q01DX009 (ip), vehicle: saline with Tween-80 93 % of control | endpoint: mean survival time, dose: 100.0 mg/kg/injection, schedule: Q04DX003 (oral), vehicle: water 110 % of control | endpoint: mean survival time, dose: 128.0 mg/kg/injection, schedule: Q01DX005 (ip), vehicle: saline 100 % of control | endpoint: mean survival time, dose: 128.0 mg/kg/injection, schedule: Q01DX009 (ip), vehicle: water 103 % of control and 108 % of control | endpoint: mean survival time, dose: 128.0 mg/kg/injection, schedule: Q08DX002 (ip), vehicle: clinical formulation 101 % of control | endpoint: mean survival time, dose: 150.0 mg/kg/injection, schedule: Q01DX001 (oral), vehicle: saline with Tween-80 108 % of control | endpoint: mean survival time, dose: 150.0 mg/kg/injection, schedule: Q01DX001 (sc), vehicle: saline 103 % of control and 110 % of control | endpoint: mean survival time, dose: 160.0 mg/kg/injection, schedule: Q01DX015 (oral), vehicle: carboxymethylcellulose (CMC) 104 % of control | endpoint: mean survival time, dose: 170.0 mg/kg/injection, schedule: Q01DX Z (oral), vehicle: saline 105 % of control | endpoint: mean survival time, dose: 200.0 mg/kg/injection, schedule: Q04DX003 (ip), vehicle: water 104 % of control | endpoint: mean survival time, dose: 256.0 mg/kg/injection, schedule: Q01DX005 (ip), vehicle: other 110 % of control | endpoint: mean survival time, dose: 256.0 mg/kg/injection, schedule: Q01DX009 (ip), vehicle: other 104 % of control | endpoint: mean survival time, dose: 300.0 mg/kg/injection, schedule: Q01DX001 (sc), vehicle: saline 110 % of control | endpoint: mean survival time, dose: 300.0 mg/kg/injection, schedule: Q04DX003 (ip), vehicle: saline with Tween-80 103 % of control | endpoint: mean survival time, dose: 300.0 mg/kg/injection, schedule: Q04DX003 (ip), vehicle: saline 100 % of control | endpoint: mean survival time, dose: 400.0 mg/kg/injection, schedule: Q04DX002 (ip), vehicle: Klucel (hydroxypropylcellulose) (HPC) 97 % of control | endpoint: mean survival time, dose: 400.0 mg/kg/injection, schedule: Q04DX003 (oral), vehicle: saline 93 % of control | endpoint: mean survival time, dose: 600.0 mg/kg/injection, schedule: Q01DX001 (ip), vehicle: Klucel (hydroxypropylcellulose) (HPC) 103 % of control | endpoint: mean survival time, dose: 600.0 mg/kg/injection, schedule: Q01DX001 (sc), vehicle: saline 109 % of control and 110 % of control | endpoint: mean survival time, dose: 960.0 mg/kg/injection, schedule: Q01DX001 (ip), vehicle: other 110 % of control | endpoint: median survival time, dose: 2.0 mg/kg/injection, schedule: Q03HX008 (oral), vehicle: other 100 % of control | endpoint: median survival time, dose: 4.0 mg/kg/injection, schedule: Q01DX009 (oral), vehicle: other 111 % of control | endpoint: median survival time, dose: 32.0 mg/kg/injection, schedule: Q01DX009 (oral), vehicle: other 100 % of control | endpoint: median survival time, dose: 32.0 mg/kg/injection, schedule: Q01DX009 (sc), vehicle: water 100 % of control | endpoint: median survival time, dose: 64.0 mg/kg/injection, schedule: Q01DX009 (oral), vehicle: other 94 % of control | endpoint: median survival time, dose: 256.0 mg/kg/injection, schedule: Q01DX001 (sc), vehicle: water 100 % of control | endpoint: median survival time, dose: 400.0 mg/kg/injection, schedule: Q04DX003 (ip), vehicle: saline with Tween-80 111 % of control
